Here are results for five molecules from patent US20260325654A1, “METHODS AND COMPOSITIONS FOR TARGETED PROTEIN DEGRADATION” (Ranok Therapeutics (Hangzhou) Co. Ltd., priority 2023, published 2026).

One assay relates to GP2D. The experiment in a line: CellTiter-Glo Reagent cancer cell line proliferation assay, GP2D. The following applies: Homo sapiens, KRAS(G12D) heterozygous, 24 hr. Type of assay: cell-based. From the text: (§1) The following cancer cell lines were employed: • AsPC-1 human pancreatic adenocarcinoma, homozygous KRAS(G12D), (ATCC, #CRL-1682); A-427 human lung carcinoma, heterozygous KRAS(G12D), (ATCC, #HTB-53); AGS human gastric adenocarcinoma, heterozygous KRAS(G12D), (ATCC, #CRL-1739); GP2D human colon adenocarcinoma, heterozygous KRAS(G12D), (Sigma Aldrich, 95090714); SW1990 human pancreatic adenocarcinoma, homozygous KRAS(G12D), (ATCC, #CRL2172); LU65A human lung giant cell carcinoma, heterozygous KRAS(G12C), (JCRB Cell Bank, #JCRB0054); NCIH727 human lung carcinoid, heterozygous KRAS(G12V), (ATCC, #CRL-5815); MKN1 human gastric adenosquamous carcinoma KRAS (wt), (JCRB Cell Bank, #JCRB0252). Cell lines were cultured according to ATCC, JCRB and Sigma Aldrich recommendations.
(§2) Cells were plated in 96-well tissue culture plates at 4,000 cells/well and incubated at 37° C./5% CO2 for 24 hr in 100 μl of media. 3-fold serial dilutions of each test compound were prepared ranging from 20 μM to 1.02 nM. Cells were then treated with test compounds at various concentrations with a final concentration of 0.5% DMSO/well, and then incubated at 37° C./5% CO2 for 24 hr. 100 μl of CellTiter-Glo® Reagent (Promega Corporation, Madison, WI) was added to each well and processed according manufacturer's protocol. Results were analyzed and IC50-values were calculated in GraphPad 7 software.

A further assay relates to SW1990. The experiment in a line: CellTiter-Glo Reagent cancer cell line proliferation assay, SW1990. It counts as cell-based. To be noted: Homo sapiens; SW1990, KRAS(G12D) homozygous, 24 hr.
From the text: as §1, §2
A general note: In ATP-based viability assays light output follows the ATP content of the culture.

The next assay relates to AGS. Nature of the assay: CellTiter-Glo Reagent cancer cell line proliferation assay, AGS. The following applies: Homo sapiens, 24 h, KRAS(G12D) heterozygous. Type of assay: cell-based, human. The method, boiled down:
(§3)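 Cells were seeded at 4,000 per well, grown 24 hr at 37° C./5% CO2, then exposed 24 hr to 3-fold dilutions from 20 μM to 1.02 nM (0.5% DMSO final). Viability was read with CellTiter-Glo luminescence, and IC50 values were calculated.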

For another assay, the system named is LU65A. The experiment in a line: CellTiter-Glo Reagent cancer cell line proliferation assay, LU65A. Type of assay: cell-based, human. The following applies: Homo sapiens, 24 h, KRAS(G12C) heterozygous. In short, it runs like this:
as §3

The next assay concerns MKN1. Nature of the assay: CellTiter-Glo Reagent cancer cell line proliferation assay, MKN1. Type of assay: cell-based. To be noted: Homo sapiens, MKN-1; MKN1, KRAS (wt), 24 hr.
From the text: as §1, §2

Another assay deals with T1, KRAS(G12C) (Homo sapiens, UniProt P01116, G12C).
T1 construct: LU65A that expresses KRAS(G12C); host or cells: LU65A
T1 sequence (P01116 1-185 isoform P01116-2 G12C limits assumed): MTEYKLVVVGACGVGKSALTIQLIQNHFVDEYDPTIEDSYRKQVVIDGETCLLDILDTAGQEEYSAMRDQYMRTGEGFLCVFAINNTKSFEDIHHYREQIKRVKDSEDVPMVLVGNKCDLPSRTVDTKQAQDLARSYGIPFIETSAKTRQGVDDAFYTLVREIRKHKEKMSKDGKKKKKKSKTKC
Nature of the assay: KRAS Western Blot Protein Degradation Assay, LU65A. Type of assay: cell-based. To be noted: 24 hr; for DC50: read-out: WB data LU65A DC50; for Dmax: read-out: WB data LU65A DMax.
From the text: as §1
(§4) Cell lines SW1990 and GP2D that express KRAS(G12D), LU65A that expresses KRAS(G12C), and NCIH727 that expresses KRAS(G12V) were seeded in 6- or 12-well tissue culture plates, and after 1 hr, test compounds were added at various concentrations and incubated at 37° C./5% CO2 for 24 hr. Cells were then washed with cold PBS, aspirated and cold RIPA buffer containing a protease/phosphatase inhibitor cocktail was added to lyse cells. After centrifugation, the total protein concentrations of cell lysates were determined using the BCA protein assay. Samples were normalized for equivalent protein concentrations, 5× SDS-PAGE loading buffer added and denatured at 100° C. for 10 min. 20 μl of each sample/well was loaded on a SDS-PAGE gel and electrophoresed for 20 min at 80 V, then 120 V for 1.5 hr. Gels were then electroblotted to nitrocellulose membranes using a wet-transfer method at 250 mA for 2.5 hr. Membranes were incubated with blocking buffer for 1 hr and washed 3 times with TBST for 5 min. Membranes were then incubated with anti-KRAS (Sigma-Aldrich, #SAB1404011) and anti-β-Actin monoclonal antibodies (Cell Signaling Technology, #3700) diluted in blocking buffer at 4° C. overnight per the manufacturer's recommendations. After washing 3 times, blots were incubated with appropriately labeled secondary antibodies for 1 hr at room temperature and washed again. Fluorescence imaging and quantitation was performed using a LI-COR Odyssey. Results was analyzed using GraphPad Prism 7 software. Compound concentrations that induced KRAS degradation (DC50 and DCmax) were calculated using GraphPad Prism 7 software.
(In general: In western blotting, separated proteins are transferred to a membrane and probed.)

The subject of the next assay is NCIH727. Nature of the assay: CellTiter-Glo Reagent cancer cell line proliferation assay, NCIH727. Type of assay: cell-based, human. The following applies: Homo sapiens, NCI-H727, 24 h, NCIH727, KRAS(G12V) heterozygous. The method, boiled down: as §3
The target of the next assay is T2, KRAS(G12V) (Homo sapiens, UniProt P01116, G12V).
T2 construct: anti-KRAS Western blot degradation by PROTACs recruiting CRBN or VHL
T2 sequence (P01116 1-188 isoform P01116-2 G12V): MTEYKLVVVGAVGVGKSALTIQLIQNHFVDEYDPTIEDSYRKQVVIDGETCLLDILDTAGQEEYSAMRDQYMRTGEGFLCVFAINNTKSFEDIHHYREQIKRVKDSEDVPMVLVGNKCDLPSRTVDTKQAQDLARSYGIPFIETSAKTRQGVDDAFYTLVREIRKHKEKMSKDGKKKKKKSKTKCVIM
The experiment in a line: KRAS Western Blot Protein Degradation Assay, NCIH727. It counts as cell-based. The following applies: for DC50: 24 hr, read-out: WB data NCIH727 DC50; for Dmax: NCI-H727, 24 hr, read-out: WB data NCIH727 DMax.
From the text: as §1, §4

Where a name gives a salt, the structure may show the parent alone. Bounds are passed on as bounds.

As usually defined, the IC50 is the concentration that gives 50% inhibition. Read a low IC50 as higher potency. As to `C#Cc1c(F)ccc2cc(O)cc(-c3ncc4c(N5C[C@H]6CC[C@@H](C5)N6)nc(OCC5(CN(C)Cc6ccc(C7CN(c8ccc9c(c8)CN(C8CCC(=O)NC8=O)C9=O)C7)cc6)CC5)nc4c3F)c12` (stereo partly drawn) [Compound 92, 3-(5-(3-(4-((((1-(((4-((1R,5S)-3,8-diazabicyclo[3.2.1]octan-3-yl)-7-(8-ethynyl-7-fluoro-3-hydroxynaphthalen-1-yl)-8-fluoropyrido[4,3-d]pyrimidin-2-yl)oxy)methyl)cyclopropyl)methyl)(methyl)amino)methyl)phenyl)azetidin-1-yl)-1-oxoisoindolin-2-yl) piperidine-2,6-dione formate], the IC50 with GP2D, in the assay with SW1990 and with AGS was under 0.1 µM throughout.
What is called DC50 is the concentration at which degradation of the target reaches its halfway point. As a reminder, the Dmax is the greatest extent of degradation seen. `C#Cc1c(F)ccc2cc(O)cc(-c3ncc4c(N5CCN(C(=O)CC#N)[C@@H](CC#N)C5)nc(OCC5(CN6CCN(CC7CCN(c8ccc9c(c8)CN(C8CCC(=O)NC8=O)C9=O)CC7)CC6)CC5)nc4c3F)c12` (stereo partly drawn) [Compound 103, 3-((2S)-2-(cyanomethyl)-4-(2-((1-((4-((1-(2-(2,6-dioxopiperidin-3-yl)-1-oxoisoindolin-5-yl)piperidin-4-yl)methyl)piperazin-1-yl)methyl)cyclopropyl)methoxy)-7-(8-ethynyl-7-fluoro-3-hydroxynaphthalen-1-yl)-8-fluoropyrido[4,3-d]pyrimidin-4-yl)piperazin-1-yl)-3-oxopropanenitrile]: the IC50 in the assay with LU65A, in the assay with GP2D, in the assay on MKN1, in the assay on NCIH727 and with AGS was over 1 µM each time. The DC50 at KRAS(G12C) and at KRAS(G12V) was over 1 µM in each case. Moreover, the Dmax on KRAS(G12C) was 10 to 50%; on KRAS(G12V) it was over 50%.
Consider `C#Cc1c(F)ccc2cc(O)cc(-c3ncc4c(N5CC6CCC(C5)N6)nc(OCC5(CN6CCC(C#Cc7ccc8c(c7)CN(C7CCC(=O)NC7=O)C8=O)CC6)CC5)nc4c3F)c12` (stereo not drawn) [Compound 91], for which the IC50 is under 0.1 µM in the assay with GP2D, 0.1 to 1 µM in the assay on SW1990 and under 0.1 µM in the assay with AGS.
Take `C#Cc1c(F)ccc2cc(O)cc(-c3ncc4c(N5CC6CCC(C5)N6C(=O)C5(C#N)CC5)nc(OCC5(CN6CCN(CC7CCN(c8ccc9c(c8)CN(C8CCC(=O)NC8=O)C9=O)CC7)CC6)CC5)nc4c3F)c12` (stereo not drawn) [Compound 107]: the IC50 was 0.1 to 1 µM in the assay with LU65A; 0.1 to 1 µM with GP2D; 0.1 to 1 µM in the assay with MKN1; over 1 µM with NCIH727; over 1 µM in the assay on AGS. Besides, the results for the DC50 on KRAS(G12C) and at KRAS(G12V) were 0.1 to 1 µM and under 0.1 µM, respectively. The Dmax on KRAS(G12C) and at KRAS(G12V) was over 50% throughout.
Take `C#Cc1c(F)ccc2cc(O)cc(-c3nc(OC)c4c(N5CC6CCC(C5)N6C(=O)CC#N)nc(OCC5(CN6CCN(CC7CCN(c8ccc9c(c8)CN(C8CCC(=O)NC8=O)C9=O)CC7)CC6)CC5)nc4c3F)c12` (stereo not drawn) [Compound 102]: the IC50 is 0.1 to 1 µM with LU65A; 0.1 to 1 µM in the assay with GP2D; 0.1 to 1 µM in the assay with MKN1; 0.1 to 1 µM with NCIH727; over 1 µM in the assay on AGS. Also, the DC50 at KRAS(G12C) was over 1 µM; at KRAS(G12V), under 0.1 µM. Further, the Dmax is 10 to 50% on KRAS(G12C) and over 50% on KRAS(G12V).
